Measured values reported in patent publication US10602680B2, “Method of internal seed disinfection by combining seed priming with vacuum infiltration” (priority 2014, dated 2020).

Key:
[1] = system: Acidovorax avenae subsp. citrulli; conditions: 1% solution, soak for 15 minutes; cited from earlier work
[2] = system: triploid watermelon seeds; experiment: Phytotoxicity screening by vacuum infiltration followed by matrix priming
Procedure: Step 110 involves choosing which species of seed will be sought to be disinfected. […] Thus, in step 130, a phytotoxicty screening is carried out on the chosen seeds using the chosen treatment. […] For example, the inventors screened the antibiotic Oxytetracycline using the method of adding chemicals to the water used in matrix priming (Eastin, J. A., 2000, U.S. Pat. No. 6,076,301) and the method of the present invention. Water containing 500 ppm of Oxytetracycline was used to prime triploid watermelon seeds using matrix priming. Further, the same seed was treated with vacuum infiltration using 500 ppm Oxytetracycline solutions for 6 hours, which was followed by a matrix priming using water. For a control, seed of the same lot was treated using vacuum infiltration with water, followed by matrix priming using water. Also, untreated seeds were preserved as an additional control.

[3] = system: Acidovorax avenae subsp. citrulli; experiment: 10 minute soak of externally infected diploid watermelon seeds in antibiotic solutions; format: in vivo
Procedure: The effectiveness of using an antibiotic solution combined with matrix priming for disinfecting triploid watermelon seeds internally infected with Acidovorax avenae subsp. citrulli has been tested. In order to screen for effective antibiotics, diploid watermelon seeds were obtained which were externally infected with Acidovorax avenae subsp. citrulli. […] Infected seeds were soaked for 10 minutes in antibiotic solutions of 100 ppm, 250 ppm, and 500 ppm of the above antibiotics. Dosage was chosen based on information reported by Layne Wade (21st Annual Tomato Disease Workshop, Asheville, N.C., November 2006) which stated that the MIC (minimum inhibitory concentration) of Kasugamycin on Acidovorax avenae subsp. citrulli is greater than 100 ppm.

[4] = system: Acidovorax avenae subsp. citrulli; experiment: 30 minute soak of infected diploid watermelon seeds, screening against the target disease; format: in vivo
Source text: Substances with suitable levels of phytotoxicity are then screened for their affectivity against target diseases. For an example, the inventors screened the antibiotic piperacillin/tazobactam, and electrolyzed water for its affectivity against Acidovorax avenae subsp. citrulli on diploid watermelons seeds. […] This serves only as an example, and any method of screening can be used either in vivo or in vitro to screen for affectivity against target diseases and appropriate dose.

[5] = system: Xanthomonas campestris pv. Campestris; experiment: Osmotic priming with PEG followed by vacuum infiltration of infected broccoli seeds: presence of disease; format: in vivo; conditions: osmotic priming for 4 days followed by 6 hours of vacuum infiltration with 500 ppm
Procedure: Determination of proper length of priming treatment and vacuum filtration treatment are performed on an empirical basis. For an example, the inventors identified proper treatment length in the following manner. A lot of broccoli seeds infected with Xanthomonas campestris pv. Campestris were treated with the following treatment regiments. […] Seeds were tested after treatments for both germination and presence of the disease Xanthomonas campestris pv. Campestris.

[6] = system: Acidovorax avenae subsp. citrulli; conditions: on Acidovorax avenae subsp. citrulli; reported by Layne Wade, 2006; cited from earlier work
[7] = further screening using the same format, concentrations not given

Row | Molecule | elimination of bacteria on seeds ([3]; 250 ppm) | elimination of bacteria on seeds ([3]; 500 ppm) | phytotoxicity ([2]; in vivo) | also measured
1 | [Ca+2].[O-]Cl.[O-]Cl [calcium hypochlorite] | – | – | – | elimination from watermelon seeds [1]: not effective
2 | O=P([O-])([O-])[O-].[Na+].[Na+].[Na+] [trisodium phosphate] | – | – | – | phytotoxicity [2, 7]: phytotoxic
3 | O=C(N[C@H](CO)[C@H](O)c1ccc([N+](=O)[O-])cc1)C(Cl)Cl [Chloramphenicol] | effective | effective | phytotoxic | –
4 | Colistin sulphate | effective | effective | – | phytotoxicity [2, 7]: mild phytotoxic effects
5 | CCn1cc(C(=O)O)c(=O)c2cc3c(cc21)OCO3 [Oxalinic acid] | effective | effective | phytotoxic | –
6 | CO/N=C(\C(=O)N[C@@H]1C(=O)N2C(C(=O)O)=C(CSc3nc(=O)c(=O)[nH]n3C)CS[C@H]12)c1csc(N)n1 [Ceftriaxone sodium] | – | – | no phytotoxic effects | elimination of bacteria on seeds ([3]; any dose (100 ppm, 250 ppm, 500 ppm)): not effective
7 | Piperacillin/tazobactam | effective | effective | – | elimination of the bacteria ([4]; 100 ppm): not effective; elimination of the bacteria ([4]; 250 ppm): effective; eradication of seed borne disease [5]: eradicated
8 | C[C@H]1O[C@H](O[C@H]2[C@H](O)[C@@H](O)[C@@H](O)[C@H](O)[C@@H]2O)[C@@H](N)C[C@@H]1NC(=N)C(=O)O [Kasugamycin] | effective | effective | – | MIC (minimum inhibitory concentration) [6]: greater than 100 ppm
9 | Trimethoprim-sulfamethoxazole | effective | effective | – | –
